This passage reports IC50 results from ChEMBL document CHEMBL5385892, “Advances in the development of phosphodiesterase-4 inhibitors” (Eur J Med Chem, 2023).

The target in test [1] is T1, Phosphodiesterase isozyme 4 (Homo sapiens, UniProt Q86V67).
T1 sequence (Q86V67 whole entry): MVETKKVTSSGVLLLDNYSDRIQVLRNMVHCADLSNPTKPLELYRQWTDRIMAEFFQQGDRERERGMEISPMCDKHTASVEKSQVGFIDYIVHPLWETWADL
Description: Inhibition of PDE4 (unknown origin).

The next test concerns the target Phosphodiesterase 3 (Homo sapiens, UniProt Q14432+Q13370). Description: Inhibition of PDE3 (unknown origin). In kind it is protein assay.

A word on the IC50: it is the midpoint of a concentration-inhibition curve. `COc1ccc(C2=NN(CCCCCc3ccccc3)C(=O)CC2)cc1OC` gave an IC50 in test [1] of 0.9 nM.
In the case of `O=C(Cc1c(Cl)c[n+]([O-])cc1Cl)c1ccc(OC(F)F)c2c1OC1(CCS(=O)(=O)CC1)O2` [ORISMILAST], the IC50 came to 1480 nM in test [1] and 0.4 nM at Phosphodiesterase 3.
In test [1], `CCOc1cc(C(CS(C)(=O)=O)N2C(=O)c3csc(NC(C)=O)c3C2=O)ccc1OC` (stereo not given) had an IC50 of 26 nM. This lies in the double-digit nanomolar range.
The same measure, in the same setting: in the case of `CNc1nc(-c2cccc(NC(=O)c3ccc(C(=O)OC)cc3)c2)c2cc(OC)c(OC)cc2n1` [LOTAMILAST] it was 2.8 nM.
